Assay results reported in the supplement of paper PMC10307832.

Columns and labels:
Experiment in all cases: relative viability (nuclei count vs DMSO), 5 days (fraction); higher = more cells survive
Neratinib + Tozasertib = compound: CCOc1cc2ncc(C#N)c(Nc3ccc(OCc4ccccn4)c(Cl)c3)c2cc1NC(=O)/C=C/CN(C)C [Neratinib] + Cc1cc(Nc2cc(N3CCN(C)CC3)nc(Sc3ccc(NC(=O)C4CC4)cc3)n2)n[nH]1 [Tozasertib] (partner 0.1 µM)
In short: (§1)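 After 5 days of treatment, lung cancer cells in 1536-well plates were fixed and stained in a single step (final 0.05% Triton X-100, 1% formaldehyde, 1 ug/ml Hoechst) and their nuclei counted on 4× images. Treatment had been applied by pin tool the day after seeding as one drug alone or as a fixed anchor-drug dose with five library-drug doses (not always all listed) in √10 steps. Relative viability is the nuclei count of treated wells divided by that of vehicle wells, and values are medians of duplicate plates.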

Neratinib + Bortezomib = compound: CCOc1cc2ncc(C#N)c(Nc3ccc(OCc4ccccn4)c(Cl)c3)c2cc1NC(=O)/C=C/CN(C)C [Neratinib] + CC(C)C[C@H](NC(=O)[C@H](Cc1ccccc1)NC(=O)c1cnccn1)B(O)O [Bortezomib] (partner 0.002 µM)
In short: as §1

Neratinib + Decitabine = compound: CCOc1cc2ncc(C#N)c(Nc3ccc(OCc4ccccn4)c(Cl)c3)c2cc1NC(=O)/C=C/CN(C)C [Neratinib] + Nc1ncn([C@H]2C[C@H](O)[C@@H](CO)O2)c(=O)n1 [Decitabine] (partner 2 µM)
In short: as §1

Neratinib + AZD7762 = compound: CCOc1cc2ncc(C#N)c(Nc3ccc(OCc4ccccn4)c(Cl)c3)c2cc1NC(=O)/C=C/CN(C)C [Neratinib] + NC(=O)Nc1cc(-c2cccc(F)c2)sc1C(=O)N[C@H]1CCCNC1 [AZD7762] (partner 0.2 µM)
In short: as §1

Cell Line | relative viability (Neratinib + Tozasertib; first compound 0.01 µM) | relative viability (Neratinib + Tozasertib; first compound 0.03162 µM) | relative viability (Neratinib + Tozasertib; first compound 0.1 µM) | relative viability (Neratinib + Tozasertib; first compound 0.3162 µM) | relative viability (Neratinib + Tozasertib; first compound 1 µM) | relative viability (Neratinib + Bortezomib; first compound 0.01 µM) | relative viability (Neratinib + Bortezomib; first compound 0.03162 µM) | relative viability (Neratinib + Bortezomib; first compound 0.1 µM) | relative viability (Neratinib + Bortezomib; first compound 0.3162 µM) | relative viability (Neratinib + Bortezomib; first compound 1 µM) | relative viability (Neratinib + Decitabine; first compound 0.01 µM) | relative viability (Neratinib + Decitabine; first compound 0.03162 µM) | relative viability (Neratinib + Decitabine; first compound 0.1 µM) | relative viability (Neratinib + Decitabine; first compound 1 µM) | relative viability (Neratinib + Decitabine; first compound 0.3162 µM) | relative viability (Neratinib + AZD7762; first compound 0.01 µM) | relative viability (Neratinib + AZD7762; first compound 0.03162 µM) | relative viability (Neratinib + AZD7762; first compound 0.1 µM) | relative viability (Neratinib + AZD7762; first compound 0.3162 µM) | relative viability (Neratinib + AZD7762; first compound 1 µM)
COR-L 105 | 0.41 | 0.418 | 0.375 | 0.251 | 0.186 | 0.856 | 0.883 | 0.429 | 0.347 | 0.346 | 0.674 | 0.618 | 0.402 | 0.349 | – | – | – | – | – | –
NCI-H2228 | 0.264 | 0.281 | 0.178 | 0.267 | 0.126 | 1.16 | 1.03 | 1.01 | 0.765 | 0.295 | – | – | – | – | – | – | – | – | – | –
EBC-1 | – | – | – | – | – | 0.599 | 0.569 | 0.541 | 0.533 | 0.349 | – | – | – | – | – | – | – | – | – | –
NCI-H520 | 0.455 | 0.418 | 0.401 | 0.433 | 0.33 | 0.468 | 0.788 | 0.448 | 0.426 | 0.31 | 0.604 | 0.547 | – | 0.46 | – | – | – | – | – | –
SW 900 | 0.561 | 0.444 | 0.673 | 0.517 | 0.387 | – | – | – | – | – | 0.438 | 0.43 | 0.427 | 0.469 | 0.514 | 0.696 | 0.753 | 0.526 | 0.54 | 0.409
NCI-H1792 | – | – | – | – | – | 1.01 | 0.965 | 0.897 | 0.896 | 0.745 | 0.731 | 0.576 | 0.503 | 0.546 | 0.516 | – | 0.943 | 0.625 | 0.533 | 0.283
NCI-H2009 | 0.732 | 0.799 | 0.621 | 0.613 | 0.554 | 0.998 | 1.08 | 0.856 | 0.825 | – | 0.358 | 0.396 | 0.342 | 0.387 | 0.447 | – | – | – | – | –
NCI-H661 | 0.374 | 0.322 | 0.323 | 0.37 | 0.308 | 0.779 | 0.697 | 0.675 | 0.446 | 0.24 | – | 0.513 | 0.38 | 0.337 | 0.331 | – | – | – | – | –
NCI-H1793 | 0.317 | 0.354 | 0.293 | 0.176 | 0.143 | – | – | – | – | – | 0.521 | 0.455 | – | 0.266 | 0.383 | 0.629 | 0.503 | 0.346 | 0.239 | 0.13
NCI-H1563 | – | – | – | – | – | 0.812 | – | 0.685 | 0.752 | 0.647 | – | – | – | – | – | – | – | – | – | –
NCI-H1395 | – | 0.76 | 0.688 | 0.73 | 0.519 | – | – | – | – | – | 0.681 | 0.807 | 0.749 | 0.559 | 0.769 | 0.419 | 0.42 | 0.399 | 0.388 | 0.389
